Assays:
Type in all cases: cell-based
[1] = tested on: M. catarrhalis TW2; assay: Dose response deferred antagonism assay, producer K12; conditions: 2.0% (w/v) raffinose, peak
Experimental: (§1) 1-2 producer strain colonies were transferred from a stock plate into 900 μL of suspension solution using a fresh cotton swab. Following this, suspensions were vortexed, and a sample was inoculated onto solid culture media using a fresh cotton swab. The inoculation was a streak that runs diametrically across the agar plate in a 1.5 cm wide strip. The plate was then incubated. Following incubation all visible colonies were removed by swabbing them from the agar surface. The plates were then treated with chloroform by dispensing 2 ml of chloroform onto 4 cm×4 cm piece of cloth and sealing the inverted agar plate on top for 30 minutes. The plates were then air dried for 30 minutes following chloroforming. 1-2 indicator strain colonies were then transferred from a stock plate into complementary suspension solution. The suspensions were then vortexed, and a sample was inoculated onto the same agar surface. These samples were streaked in a perpendicular direction to the initial producer streak.
(§2) Each indicator streak was prepared with fresh a suspension containing cells from a corresponding stock plate containing the indicator strain of interest. Indicator strains suspension samples were transferred using a fresh cotton swab. Results were measured by qualitatively reviewing the subsequent (if any) sizes of the zones of inhibition (ZOI) of indicator strain colony growth. A positive result is when there is a distinctive reduction or complete inhibition of indicator colony growth on the culture medium.
(§3) CABCa agar plates containing various concentrations of saccharide were prepared according to the methods described in Method 1. Producer strains were transferred from stock agar plates into 900 μL THB using a fresh cotton swab. A plastic spread plater was cut to approximately 1.2 cm width and then dipped into ethanol and left to air dry to ensure sterility. A 100 μL sample of the producer strain suspension was then dispensed onto the agar surface in a straight line running diametrically across the agar surface in (approximately) 20 μL spots. The spots were spaced approximately 1.5 cm apart from each other. The plastic spreader was then used to evenly distribute the spots across the agar surface in a 1.5 cm wide strip. This step was taken to ensure an even producer streak was inoculated onto the agar surface and provided an approximate measure of the initial inoculum concentration. Separate plastic spreaders were used for samples containing different producer strains. The samples were left to soak into the agar surface until there was no visible liquid remaining on the agar surface (approximately 20 minutes). Following producer streak preparations, the deferred antagonism assay protocol was followed as per Method 2. Results were recorded by measuring the size of the zone of inhibition (ZOI) in mm.
(§4) The results presented in FIG. 1 and FIG. 2 illustrate the change in ear, nose, and throat (ENT) microorganism indicator strain zone of inhibition sizes. When K12 was cultured in the presence of various concentrations of galactose the ZOI sizes for several of the ENTR indicator strains increased markedly from the control condition (FIG. 1). M. catarrhalis TW1 and TW2 display similar changes in the ZOI sizes across the various concentrations of galactose. The change in TW1 ZOI size peaks at 1.5% galactose(w/v) (12 mm) then decreases at 2.0% galactose (w/v), whereas the change of TW2 ZOI size peaks at 2.0% galactose (w/v) (11 mm). The change in L. lactis T-21 ZOI sizes trend upwards relative to the concentration of galactose present in the culture medium.

[2] = tested on: L. lactis T-21; assay: as above
Experimental: as §1, §2, §3, §4

[3] = tested on: S. pyogenes M76; assay: as above; conditions: 1.5% raffinose (w/v), peak
Experimental: as §1, §2, §3, §4

[4] = tested on: S. saprophyticus ATCC 15305; assay: Deferred antagonism assay, producer S. salivarius M18; conditions: for Zone of inhibition S. saprophyticus ATCC 15305: M18
Experimental: as §1, §2, §3
(§5) A dose response assay was carried out according to method 3 above, except a 1.2 cm streak was used. For the individual saccharide testing the pH of the producer streak was adjusted after the growth of producer to change the acidic conditions.
(§6) A deferred antagonism assay was conducted using K12 or M18 raw ingredient suspended in Todd Hewitt broth (THB). This was spread as a 1.2 cm streak containing approximately 1-2×10^6 cfu down the middle of a CABCa control or CABCa galactose supplemented test plate. After 18 hrs growth at 37° C. with 5% CO2, bacterial growth was removed, and the pH of the agar in the initial streak was measured and adjusted to a pH of 6.5-7.5 using 0.5M sodium carbonate pH11 before sterilizing the agar surface using chloroform vapor. Bacterial test strains were suspended in i-THB before being swabbed across the plates perpendicular to the initial streak. Plates were incubated for a further 18 hrs incubation at 37° C. with 5% CO2 before measuring (mm) any zones of inhibition for each test strain, […]

[5] = tested on: S. pneumoniae D39; assay: as above; conditions: for Zone of inhibition S. pneumoniae D39: M18
Experimental: as §1, §2, §3, §5, §6

[6] = tested on: S. mutans OMZ175; assay: as above; conditions: for Zone of inhibition S. mutans OMZ175: M18
Experimental: as §1, §2, §3, §5, §6

[7] = tested on: S. constellatus T29; assay: as above; conditions: for Zone of inhibition S. constellatus T29: M18
Experimental: as §1, §2, §3, §5, §6

[8] = tested on: S. aureus A222; assay: as above; conditions: for Zone of inhibition S. aureus A222: M18
Experimental: as §1, §2, §3, §5, §6

[9] = 1.25, 2.5, 5% w/v raffinose added

Compound: OC[C@H]1O[C@H](OC[C@H]2O[C@H](O[C@]3(CO)O[C@H](CO)[C@@H](O)[C@@H]3O)[C@H](O)[C@@H](O)[C@@H]2O)[C@H](O)[C@@H](O)[C@H]1O [Raffinose, D-(+) Raffinose pentahydrate]
- change in ZOI size M. catarrhalis TW2 [1]: 13 mm
- change in L. lactis ZOI size ([2]; 0.1% raffinose (w/v)): 15 mm
- change in L. lactis ZOI size ([2]; 1.0% raffinose (w/v)): 16 mm
- change in ZOI size for S. pyogenes M76 [3]: 13 mm
- sensitivity of S. saprophyticus ATCC 15305 to M18 [4, 9]: sensitive
- Zone of inhibition S. saprophyticus ATCC 15305 ([4]; Raffinose 1.7% wt): 16 mm
- Zone of inhibition S. saprophyticus ATCC 15305 ([4]; Raffinose 1.7% wt, pH adjusted): 15 mm
- Zone of inhibition S. saprophyticus ATCC 15305 ([4]; Raffinose 2.5% wt): 17 mm
- Zone of inhibition S. saprophyticus ATCC 15305 ([4]; Raffinose 2.5% wt, pH adjusted): 15 mm
- Zone of inhibition S. saprophyticus ATCC 15305 ([4]; Raffinose 3.3% wt): 17 mm
- Zone of inhibition S. saprophyticus ATCC 15305 ([4]; Raffinose 3.3% wt, pH adjusted): 14 mm
- Zone of inhibition S. saprophyticus ATCC 15305 ([4]; Raffinose 5% wt): 14 mm
- Zone of inhibition S. saprophyticus ATCC 15305 ([4]; Raffinose 5% wt, pH adjusted): 12 mm
- Zone of inhibition S. saprophyticus ATCC 15305 ([4]; Raffinose 10% wt): 0 mm
- Zone of inhibition S. saprophyticus ATCC 15305 ([4]; Raffinose 10% wt, pH adjusted): 0 mm
- inhibition by M18 of S. pneumoniae ([5]; 0.5 to 10% w/v raffinose): increase in inhibition
- Zone of inhibition S. pneumoniae D39 ([5]; Raffinose 1.7% wt): 3 mm
- Zone of inhibition S. pneumoniae D39 ([5]; Raffinose 1.7% wt, pH adjusted): 12 mm
- Zone of inhibition S. pneumoniae D39 ([5]; Raffinose 2.5% wt): 10 mm
- Zone of inhibition S. pneumoniae D39 ([5]; Raffinose 2.5% wt, pH adjusted): 11 mm
- Zone of inhibition S. pneumoniae D39 ([5]; Raffinose 3.3% wt): 7 mm
- Zone of inhibition S. pneumoniae D39 ([5]; Raffinose 3.3% wt, pH adjusted): 13 mm
- Zone of inhibition S. pneumoniae D39 ([5]; Raffinose 5% wt): 2 mm
- Zone of inhibition S. pneumoniae D39 ([5]; Raffinose 5% wt, pH adjusted): 12 mm
- Zone of inhibition S. pneumoniae D39 ([5]; Raffinose 10% wt): 1 mm
- Zone of inhibition S. pneumoniae D39 ([5]; Raffinose 10% wt, pH adjusted): 11 mm
- sensitivity of S. mutans OMZ175 to M18 ([6]; 0.5, 1.25, 2.5, and 5% w/v raffinose added): sensitive
- Zone of inhibition S. mutans OMZ175 ([6]; Raffinose 1.7% wt): 22 mm
- Zone of inhibition S. mutans OMZ175 ([6]; Raffinose 1.7% wt, pH adjusted): 21 mm
- Zone of inhibition S. mutans OMZ175 ([6]; Raffinose 2.5% wt): 20 mm
- Zone of inhibition S. mutans OMZ175 ([6]; Raffinose 2.5% wt, pH adjusted): 19 mm
- Zone of inhibition S. mutans OMZ175 ([6]; Raffinose 3.3% wt): 21 mm
- Zone of inhibition S. mutans OMZ175 ([6]; Raffinose 3.3% wt, pH adjusted): 17 mm
- Zone of inhibition S. mutans OMZ175 ([6]; Raffinose 5% wt): 19 mm
- Zone of inhibition S. mutans OMZ175 ([6]; Raffinose 5% wt, pH adjusted): 16 mm
- Zone of inhibition S. mutans OMZ175 ([6]; Raffinose 10% wt): 0 mm
- Zone of inhibition S. mutans OMZ175 ([6]; Raffinose 10% wt, pH adjusted): 0 mm
- sensitivity of S. constellatus T-29 to M18 [7, 9]: sensitive
- Zone of inhibition S. constellatus T29 ([7]; Raffinose 1.7% wt): 22 mm
- Zone of inhibition S. constellatus T29 ([7]; Raffinose 1.7% wt, pH adjusted): 17 mm
- Zone of inhibition S. constellatus T29 ([7]; Raffinose 2.5% wt): 18 mm
- Zone of inhibition S. constellatus T29 ([7]; Raffinose 2.5% wt, pH adjusted): 16 mm
- Zone of inhibition S. constellatus T29 ([7]; Raffinose 3.3% wt): 18 mm
- Zone of inhibition S. constellatus T29 ([7]; Raffinose 3.3% wt, pH adjusted): 17 mm
- Zone of inhibition S. constellatus T29 ([7]; Raffinose 5% wt): 16 mm
- Zone of inhibition S. constellatus T29 ([7]; Raffinose 5% wt, pH adjusted): 14 mm
- Zone of inhibition S. constellatus T29 ([7]; Raffinose 10% wt): 12 mm
- Zone of inhibition S. constellatus T29 ([7]; Raffinose 10% wt, pH adjusted): 0 mm
- sensitivity of S. aureus A222 to M18 [8, 9]: sensitive
- Zone of inhibition S. aureus A222 ([8]; Raffinose 1.7% wt): 20 mm
- Zone of inhibition S. aureus A222 ([8]; Raffinose 1.7% wt, pH adjusted): 17 mm
- Zone of inhibition S. aureus A222 ([8]; Raffinose 2.5% wt): 20 mm
- Zone of inhibition S. aureus A222 ([8]; Raffinose 2.5% wt, pH adjusted): 18 mm
- Zone of inhibition S. aureus A222 ([8]; Raffinose 3.3% wt): 18 mm
- Zone of inhibition S. aureus A222 ([8]; Raffinose 3.3% wt, pH adjusted): 17 mm
- Zone of inhibition S. aureus A222 ([8]; Raffinose 5% wt): 16 mm
- Zone of inhibition S. aureus A222 ([8]; Raffinose 5% wt, pH adjusted): 13 mm
- Zone of inhibition S. aureus A222 ([8]; Raffinose 10% wt): 0 mm
- Zone of inhibition S. aureus A222 ([8]; Raffinose 10% wt, pH adjusted): 0 mm
